Test results published in US20140147856A1, “Intestinal Permeability Assay for Neurodegenerative Diseases” (Rush University Medical Center, priority 2012, published 2014).

Assay: Oral sugar intestinal permeability assay (urinary sugar excretion by gas chromatography)
Type: in vivo, human
Conditions: oral sugar mixture with 1 gram sucralose after overnight fast, 24 h urine
Source text: In an example of a protocol used to validate the instant invention, patients with clinically diagnosed PD not yet requiring dopaminergic therapy were recruited under a clinical protocol (FIG. 1 and Table 1). […] Constipation was defined as fewer than 3 bowel movements per week or if the subject complained of constipation. Men and women who met United Kingdom Parkinson Disease Research Society brain bank criteria for PD, Hoehn & Yahr stage 1-2.5 were included. Subjects were excluded based on the following: atypical or secondary Parkinsonism, any known organic gastrointestinal disease, use of drugs affecting gastrointestinal motility, anti-inflammatory agents, and chronic diuretic use. Control subjects were of similar age and gender that had no GI or neurological symptoms or signs (determined by examination by a board certified neurologist with expertise in movement disorders) and were not taking regular medication or anti-inflammatory agents.
Subjects fasted overnight and subsequently ingested a sugar mixture containing 2 grams mannitol, 7.5 grams lactulose, 40 grams sucrose, and 1 gram sucralose at 6 AM, then collected 2 sequential 12-hour urine samples. Urine was analyzed for sugar content using gas chromatography (GC) techniques as described herein. […] The final residue is dissolved in 0.5 ml acetone and the sample is ready for analysis. […]

With `OC[C@H]1O[C@H](O[C@]2(CCl)O[C@H](CCl)[C@@H](O)[C@@H]2O)[C@H](O)[C@@H](O)[C@H]1Cl` [sucralose] the “mean 24 h urinary sucralose (marker of total intestinal permeability)” value (PD subjects) was 1.12±0.1% of oral dose and the “mean 24 h urinary sucralose (marker of total intestinal permeability)” value (age matched controls) was 0.58±0.1% of oral dose.
